# Literature values, collected in patent US20230181510A1, “COMPOSITION AND METHODS OF RETINOIC ACID” (priority 2020, published 2023).
# Experiments:
# [1] = system: human skin; details: topical stabilized treatment, human skin in vitro and in vivo
# [2] = system: collagen; details: topical treatment
substance,measurement,setting,value
retinoic acid,Expression of HAS genes and HA production,[1],induce the expression of hyaluronic acid (HA) synthase (HAS) genes and HA production
same,Collagen regeneration,[2],stimulates collagen regeneration
